For assay [1], the system named is CD8^+ T-lymphocytes. As to the kind of experiment: qRT-PCR of differentiation, memory and pluripotency associated genes. Format: cell-based, mouse. Conditions: 0.5 mM, 1 day or 7 days, with IL2. The procedure: FIGS. 8E, 8F and 8G show expression of II2(8E), Ifng (8F), and Eomes (8G) mRNA in CD8^+ T-lymphocytes activated for 48 h with αCD3+αCD28 antibodies and then expanded for a further 2 days in the presence of IL-2. Cells were then treated for either 24 h or 7 days with or without 0.5 mM S-2HG-octyl ester or R-2HG-octyl ester. n≥4 mice per group.
Activated CD8^+ T-lymphocytes were treated with 0.5 mM of either S-2HG-octyl ester or R-2HG-octyl ester for 1 day or 7 days in the presence of IL2. The induction seen with R-2HG-octyl ester is weaker than with S-2HG-octyl ester. Each dot represents an individual donor mouse, n=4 mice. error bars denote the s.d.
RNA was isolated using the RNeasy kit (Qiagen). 1 μg of RNA was used for cDNA synthesis with the First-Strand Synthesis kit (Invitrogen). All samples were run in technical triplicates using a StepOnePlus system (Applied Biosystems) with SYBR green.
(In general: Real-time PCR tracks product formation cycle by cycle.)

The subject of assay [2] is CD8^+ T-lymphocytes. Put plainly: Flow cytometric characterisation of phenotypic markers. Format: cell-based, mouse. The note with it: 7 days. From the text:
Gated on live CD8^+ cells. Each dot represents an individual mouse.
Associated statistics are shown and each pair of dots represents an individual mouse. Gated on live, CD8^+GFP^+ cells.
Cells were stained and acquired on a Fortessa (BD Biosciences). The following fluorophores and fluorophore-conjugated antibodies were used: anti-CD62L (Biolegend, MEL-14), anti-CD44 (Biolegend, IM7), anti-CD8a (Biolegend, 53-6.7), anti-CD45.1 (Biolegend, A20), anti-CD45.2 (Biolegend, 104), anti-CD127 (Biolegend, A7R34), anti-KLRG1 (Biolegend, 2F1/KLRG1), anti-CD19 (Biolegend, 6D5), anti-Bcl-2 (Biolegend, BCL/10C4), Eomes (eBioscience, Danlimag), PD-1 (Biolegend, 29F.1A12), […], H-2Kb/SIINFEKL Pentamer-PE (Proimmune, F093-2A), CFSE (Life Technologies), LIVE/DEAD Violet (Life Technologies), PI-AnnexinV (Biolegend, 640928), anti-Bcl-xl-PE (Cell Signalling Technologies, 54H6). For staining of nuclear-located marker Eomes, the Transcription Factor Staining Buffer Set (eBioscience) was used, according to the manufacturer's instructions. For staining of intracellular cytokines, OT-I cells were re-stimulated with SIINFEKL peptide for 4 h with GolgiStop solution (BD). For ^1H-NMR experiments, CD8^+ T-lymphocytes were sorted from total splenocytes by immunostaining with anti-mouse CD8-AF647 (Biolegend) on a MoFlo (Beckman Coulter). Cells were then activated and cultured as described above. For staining of human T cells, CD8^+ T cells were incubated at 37 C for 30 minutes in the presence of anti-CCR7 antibody (eBioscience 12-1979-41), followed by staining with anti-CD45RO antibody (Biolegend, UCHL1).
A general note: A flow cytometer gives signals particle by particle.

The subject of assay [3] is OT-I CD8^+ T-lymphocytes. Put plainly: Homeostatic proliferation after co-transfer into sub-lethally irradiated hosts. Format: in vivo, mouse. The procedure: CD45.1.1 or CD45.1.2 OT-I CD8^+ T-lymphocytes were activated with 1000 nM SIINFEKL peptide and cultured with or without 300 μM S-2HG-octyl ester for 9 days. Cells from each group were mixed 1:1 and labelled with CFSE prior to transfer into sub-lethally irradiated CD45.2.2 mice. 7 days later, mice were sacrificed and the presence of CD451.1 and CD45.1.2 CD8^+ T-lymphocytes was enumerated in spleen by flow cytometry. Representative flow cytometry plots are shown for each pool before and after adoptive transfer. Flow cytometry plots show viable CD8^+ cells.
Total splenocytes from OT-I CD45.1/CD45.1 and OT-I CD45.1/CD45.2 mice were activated with 1000 nM SIINFEKL peptide in the presence of IL-2 and vehicle or 300 μM S-2HG-octyl ester. After 48 h CD8^+ T-cells were purified by negative selection and cultured for a further 7 days in the presence of IL-2 and vehicle or 300 μM S-2HG-octyl ester. Vehicle and S-2HG-treated cells were then mixed 1:1 and labelled with CFSE, followed by intravenous injection into sub-lethally irradiated CD45.2/CD45.2 hosts. 7 days later, spleens were harvested and analysed by flow cytometry. Absolute numbers of cells were determined with the use of counting beads (CountBright, Life Technologies)

For assay [4], the system named is OT-I CD8^+ T-lymphocytes. Put plainly: In vivo persistence experiments. The arrangement: species or system mouse. As to the method:
Flow cytomotery plots are gated on live cells.
Total splenocytes from OT-I CD45.1^+ mice were activated with 1000 nM SIINFEKL peptide in the presence of IL-2 and vehicle or 300 μM S-2HG-octyl ester. After 48 h CD8^+ T-cells were purified by negative selection and cultured for 7 days in the presence of IL-2 and vehicle or 300 μM S-2HG-octyl ester. 1 million CD45.1^+CD8^+ cells were then injected intravenously into C57BL/6J wild type CD45.2.2 host mice. 30 days later, host mice were sacrificed to assess the persistence of transferred cells in the spleen. Absolute numbers of cells were determined with the use of counting beads (CountBright, Life Technologies).

Assay [5] has as its system OT-I CD8^+ T-lymphocytes. Put plainly: Recall experiments with co-transferred cells. It counts as in vivo, mouse. The note with it: cells pre-treated with 300 μM S-2HG-octyl ester; spleen, lymphnodes, liver, day 37 post transfer. The procedure:
CD45.1.1 or CD45.1.2 OT-I CD8^+ T-lymphocytes were activated with 1000 nM SIINFEKL peptide and cultured with or without 300 μM S-2HG-octyl ester for 9 days. Cells from each group were mixed 1:1 prior to transfer into CD45.2.2 mice. 30 days later, these recipient mice were vaccinated with SIINFEKL-loaded dendritic cells to induce recall and the presence of CD451.1 and CD45.1.2 CD8^+ T-lymphocytes was enumerated in spleen, lymphnodes and liver by flow cytometry 7 days later.

The subject of another assay is EG7-OVA tumours. Put plainly: Adoptive cellular immunotherapy experiments. It counts as in vivo, mouse. Conditions: i.v. As to the method:
Mice were lymphodepleted with sub-lethal irradiation before receivening intravenous injection of OT-I CD8^+ T-lymphocytes. Error bars denote s.e.m. *p<0.05, ns=non-significant.
Error bars denote s.e.m. *p<0.05, ns=non-significant.
For adoptive cell therapy experiments, OT-I CD8^+ T-lymphocytes were activated with 1000 nM SIINFEKL peptide in the presence of IL-2 and vehicle or 300 μM S-2HG-octyl ester. After 48 h CD8^+ T-cells were purified by negative selection and cultured for a further 7 days in the presence of IL-2 and vehicle or 300 μM S-2HG-octyl ester. OT-I cells were transferred intravenously into tumour-bearing C57BL/6J lymphodepleted or lymphoreplete mice with 9-12 day established EG7-OVA tumours.

Assay [6] deals with CD8^+ T-lymphocytes. As to the kind of experiment: Flow cytometry of CD44 and CD62L surface expression. Conditions: 0.5 mM, with IL-2; antigen specific (OT-I) and polyclonal CD8+ T-lymphocytes. Format: cell-based, mouse. From the text: Data are representative of n=4 individual mice.
Data are representative of 3 mice per genotype.
Data are representative of 2 mice per genotype.
Data are representative of n=3 individual mice.
Cells were stained and acquired on a Fortessa (BD Biosciences). […] For staining of nuclear-located marker Eomes, the Transcription Factor Staining Buffer Set (eBioscience) was used, according to the manufacturer's instructions. For staining of intracellular cytokines, OT-I cells were re-stimulated with […] peptide for 4 h with GolgiStop solution (BD). For ^1H-NMR experiments, CD8^+ T-lymphocytes were sorted from total splenocytes by immunostaining with anti-mouse CD8-AF647 (Biolegend) on a MoFlo (Beckman Coulter). Cells were then activated and cultured as described above.

Assay [7] deals with OT-I CD8^+CD45.1^+ T-lymphocytes. As to the kind of experiment: In vivo memory recall experiment (adoptive transfer, vaccination). The arrangement: species or system mouse. The note with it: 0.5 mM, 7 days with IL-2 (FIGS. 13, 16, 17). The procedure: FIGS. 13B and 13C show representative flow cytometry plots of (B) CD8^+CD45.1^+ (C) or Kb/SIINFEKL Pentamer^+CD45.1^+ T-lymphocytes, in the spleens of vaccinated litter mate CD45.2 mice, 37 days after adoptive transfer of SIINFEKL-activated OT-I CD8^+CD45.1^+ T-lymphocytes, expanded with 0.5 mM S-2HG-octyl ester, 0.5 mM R-2HG-octyl ester or vehicle in the presence of IL-2 for 7 days. FIGS. 13D-F show (13D) the number of recovered CD45.1^+CD8^+ T-lymphocytes per spleen and (13E) % CD45.1^+ cells of the total CD8^+ population in each spleen or (13F) number of recovered Kb/SIINFEKL Pentamer^+CD45.1^+ T-lymphocytes per spleen 7 days after vaccination (37 days after the CD8+ T-cells were transferred into the mice). n=6 mice per group and error bars denote the s.e.m.
Total splenocytes from OT-1 CD45.1^+ mice were activated with 1000 nM SIINFEKL peptide in the presence of IL-2 and vehicle, 0.5 mM S-2HG-octyl ester or 0.5 mM R-2HG-octyl ester for 7 days. 1 million CD45^+CD8^+ cells were then injected intravenously into C57/B6 wild type CD45.2^+ host mice. 30 days later, host mice were vaccinated i.p. with SIINFEKL-loaded dendritic cells. 7 days later, spleens were harvested from host mice and the presence of CD45.1^+CD8^+ and Kb/SIINFEKL Pentamer+cells was determined by flow cytometry. Absolute numbers of cells were determined with the use of counting beads (CountBright, Life Technologies). Dendritic cells were prepared from bone marrow extracted from wild type C57/B6 mice. Bone marrow derived cells were cultured in non-TC treated petri dishes in RPMI-1640 medium containing 2 mM glutamine, 10% FBS, 25 mM HEPES, pH 7.2, 1% penicillin-streptomycin, 55 μM […] supplemented 20 ng/ml mGM-CSF (R&D Systems). After 8 days of culture, dendritic cells were activated with 1 μg/ml LPS (Sigma) for 24 h. The maturation of dendritic cells was confirmed by flow cytometry using the following markers: MHC class II-APC, CD11b-AF488, CD11c-AF488 and CD86-PE/Cy7 (Biolegend). Mature dendritic cells were then loaded with 2 μM SIINFEKL peptide at 37° C. for 1 hour. After peptide loading, dendritic cells were detached with 3 mM EDTA in PBS for 5-10 min at 37° C. and washed with PBS. For vaccination, 1 million peptide-loaded dendritic cells were injected i.p. per mouse in 100 μl PBS.

Where [8] appears, read: 500 μM S-2HG-octyl ester, HIF-1α-independent.

For the molecule `O=C(O)CC[C@H](O)C(=O)O` [S-2HG, S-2-hydroxyglutarate], the “expression of pluripotency associated genes (Oct3/4, Sox2, Nanog, Klf4)” value with CD8^+ T-lymphocytes [1] is given as “induces the expression”. In the assay on CD8^+ T-lymphocytes [2] (300 μM S-2HG-octyl ester, 21% oxygen, empty or L2hgdh-FLAG vector), the “proportion of KLRG1^High cells” value is “decreased”. For the same molecule, the PD-1 expression result in the assay with CD8^+ T-lymphocytes [2] (500 μM S-2HG-octyl ester) was “less”. In addition, in the assay on CD8^+ T-lymphocytes [2] (setting [8]), the 41BB expression entry is given as “more”, the CD44 expression result was “more”, the CD127 expression entry is on record as “more” and the “Eomes expression (flow cytometry)” value is “more”. In the assay on OT-I CD8^+ T-lymphocytes [3] (cells pre-treated with 300 μM S-2HG-octyl ester 9 days, 7 days after transfer, spleen), the “homeostatic proliferation of transferred cells” value is reported as “greater homeostatic proliferation”. The “transferred cells dividing >5 times in vivo” value in the assay on OT-I CD8^+ T-lymphocytes [3] (cells pre-treated with 300 μM S-2HG-octyl ester, CFSE, day 7) is “more cells dividing >5 times”. Also, the “persistence of adoptively transferred cells” value in the assay with OT-I CD8^+ T-lymphocytes [4] (cells pre-treated with 300 μM S-2HG-octyl ester, spleen, 30 days after transfer) is reported as “dramatically enhanced persistence”. Moreover, in the assay with OT-I CD8^+ T-lymphocytes [4] (day 30 after transfer), the “Bcl-2 level of recovered cells relative to naïve cells” value is given as “elevated”, the “CD44 level of recovered cells relative to naïve cells” value was “elevated” and the “CD127 level of recovered cells relative to naïve cells” value is recorded as “elevated”. In addition, in the assay on OT-I CD8^+ T-lymphocytes [5], the “recall response to vaccination with SIINFEKL-loaded dendritic cells” value is given as “superior recall response”. The “control of tumour growth in lymphodepleted tumour-bearing mice” value in the assay with EG7-OVA tumours (0.7×10^6 OT-I cells cultured with S-2HG-octyl ester, 12 day tumours) is recorded as “more proficient at controlling tumour growth”. Further, the “control of tumour growth in lymphoreplete tumour-bearing mice” value with EG7-OVA tumours (1.0×10^6 OT-I cells cultured with S-2HG-octyl ester, 9 day tumours) is “more proficient at controlling tumour growth”.

On to `COC(=O)CCC(=O)OC` [dimethylsuccinate], for which, in the assay on CD8^+ T-lymphocytes [6], the “formation of a CD62L^high CD44^high population” value was “induce the formation”. For the same molecule, the “formation of memory cells after in vitro treatment of CD8+ T-cells” value in assay [7] is “induces the formation”.

Regarding `CCCCCCCCOC(=O)C(=O)CCC(=O)O` [α-ketoglutarate octyl ester, reference compound], the “formation of a CD62L^high CD44^high population” value in the assay with CD8^+ T-lymphocytes [6] is given as “not observed”. The figures for the “formation of memory cells after in vitro treatment of CD8+ T-cells” value in assay [7] and in assay [7] (listed as alpha ketoglutarate) were “does not induce the formation” and “does not provide good activity”, respectively.

(Values after patent US20190316085A1, “Methods Of T-Lymphocyte Expansion” (Cambridge Enterprise Limited, priority 2015, published 2019).)
